Reference: article PMC6364495, “Peptide–siRNA Supramolecular Particles for Neural Cell Transfection” (Advanced Science, 2018)
No end group written: not given here.

Assays:
[1] = test system: primary cortical embryonic neurons; assay: Internalization route with endocytosis inhibitors, neurons; format: cell-based, mouse; settings: 300 μM amiloride, 30 minutes preincubation before P4 + siRNA-A488, flow cytometry
Procedure: 1-4 days post-transfection cells were washed carefully three times with 1x PBS. Each well was incubated with 200 µL […]
resuspended in 600 µL of media to neutralize the trypsin and were centrifuged for 15 min at […]. Supernatant was removed, and the pellet was re-suspended in approximately 40 μL of media before Flow Cytometry (BD LSRFortessa) was performed. DAPI (Sigma, 5 µg/mL) was added 1-3 min before measurements were taken to determine the absolute number of dead cells (excitation wavelength of 405 nm). Cell populations were gated based on cell size (FSC), granularity of the cytoplasm (SSC), multiple cells (FSC-W), UV fluorescence (DAPI filter). Percentage of positive cells was calculated from alive cells (DAPI negative). All the samples were measured in triplicates. Results were analyzed using FlowJo software.
After 15 div neural cells were treated with either 5 μg/mL chlorpromazine hydrochloride, 1μg/mL fillipin III from Streptomyces filipinensis, 300 μM amiloride hydrochloride or a combination of them in fresh serum-free medium for 30 minutes before incubated with the peptide (52 μM) + siRNA-A488 (100 nM) for 15h. Samples were analyzed using flow cytometry as described in the previous section.
Western blot/ immunocytochemistry […]

[2] = Water solubility of peptide; format: physicochemical
Proteinase K = biological target: T1, Proteinase K (Parengyodontium album, UniProt P06873); assay: Proteinase K digestion test; format: in vitro ADME, Tritirachium album; settings: 50 µM peptide, 0.2 µM siRNA, 25 mM HEPES pH 7.4, 24h, 37C, gel
T1 construct: purchased Sigma-Aldrich
T1 sequence (P06873 106-384): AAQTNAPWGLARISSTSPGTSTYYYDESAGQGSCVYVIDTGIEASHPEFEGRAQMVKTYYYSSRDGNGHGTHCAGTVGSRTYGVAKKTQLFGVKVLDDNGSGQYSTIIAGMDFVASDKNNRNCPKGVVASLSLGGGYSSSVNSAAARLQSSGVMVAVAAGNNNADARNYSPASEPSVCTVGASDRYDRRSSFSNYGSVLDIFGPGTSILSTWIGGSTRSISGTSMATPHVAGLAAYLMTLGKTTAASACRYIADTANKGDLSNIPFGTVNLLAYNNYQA
Procedure: (§1) (Inhepar®, 5000 U/mL equivalent to) and Milli -Q® water to a final concentration of 0.01 mg/mL (1 U/mL) in a final volume of 10 μL. Samples were incubated at room temperature for 2h. After incubation, samples were run in a native 6% polyacrylamide electrophoresis gel as described in the section above.
(§2) A solution of 40 µM peptide and 0.2 µM DNA dissolved in 10X DNAse I buffer (Invitrogen) was mixed with DNAse I (Invitrogen) for a final enzyme concentration of 0.003 U/µL. The solution was incubated at 37 C and at each time point, 12 µL were mixed with 2.7 µL of 5X TBE buffer in ice to quench the enzyme. Then an aliquot of 4 M NaCl was added to every time point sample to a final concentration of […] after incubation for 3 days at 4°C the samples were ran in an electrophoresis gel.
(§3) Proteinase K Digestion Test
(§4) A previously prepared solution of 50 µM peptide and 0.2 µM siRNA dissolved in buffer 25 mM HEPES pH 7.4 were incubated during 24h at 37C in presence of Proteinase K from Tritirachium album (Sigma-Aldrich). After this time an aliquot of it was ran in an electrophoresis gel as mentioned above.
(§5) Salt stability of P4-siRNA particles
(§6) Sample solutions of 70 µM P4 peptide and 0.2 µM of siRNA in 25 mM HEPES pH 7.4 were incubated with different concentrations of NaCl (0-300 mM) for 24h at room temperature.
(§7) The samples were run in a native 6% polyacrylamide electrophoresis gel prepared manually. […]

DNAse I = biological target: T2, DNAse I (Bos taurus, UniProt P00639); assay: Salt stability and DNAse I digestion of P4-DNA particles; format: in vitro ADME; settings: versus siRNA particles, DNAse I 0.003 U/µL, 37 C, gel
T2 construct: purchased Invitrogen
T2 sequence (P00639 23-282): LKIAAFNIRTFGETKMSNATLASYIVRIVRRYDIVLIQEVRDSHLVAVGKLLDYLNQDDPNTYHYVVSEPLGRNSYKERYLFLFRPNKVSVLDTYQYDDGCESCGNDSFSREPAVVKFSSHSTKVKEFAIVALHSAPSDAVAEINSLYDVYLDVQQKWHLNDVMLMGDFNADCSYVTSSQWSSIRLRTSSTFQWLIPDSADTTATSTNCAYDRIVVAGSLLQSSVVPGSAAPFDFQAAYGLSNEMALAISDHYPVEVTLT
Procedure: as §1, §2, §3, §4, §5, §6, §7

[3] = test system: primary cortical astroglial cells; format: cell-based; settings: 24 h, 104 µM
Procedure: (§8) Dulbecco’s Modified Eagle Medium (DMEM, Biological Industries), 10% normal horse serum (NHS, GIBCO), 1% penicillin-streptomycin (Pen-Strep, Biological Industries) and 2mM L-glutamine (Biological Industries). After centrifugation and re-suspension, cells were plated and grown to confluence at 37°C, 5% CO 2 (approximately 25-30 days in vitro (div)).
(§9) All the experiments were performed using glial cells from the first passage (Ps1). Passage 1 (Ps1) cells were cultured at a density of 2x10^5 cells/cm2 for 15 days in vitro (div) in DMEM, 1% Pen-Strep and 2mM L-glutamine on non-coated culture plastic (for Western blotting, flow cytometry) or glass (for immunocytochemistry). The cell composition and biochemical characterization of control and reference glial conditions have been described previously2.
(§10) Neurons were obtained from embryonic brains, as described3. Briefly, a time pregnant mouse was sacrificed by cervical dislocation and the embryos were extracted at embryonic day 16 (E16). […]
(§11) resuspended in 600 µL of media to neutralize the trypsin and were centrifuged for 15 min at 1.2 rpm. […] Cell populations were gated based on cell size (FSC), granularity of the cytoplasm (SSC), multiple cells (FSC-W), UV fluorescence (DAPI filter). Percentage of positive cells was calculated from alive cells (DAPI negative). All the samples were measured in triplicates. Results were analyzed using FlowJo software. […]

[4] = test system: primary cortical embryonic neurons; format: cell-based; settings: 24 h, 104 µM
Procedure: as §8, §9, §10, §11

Which “reduction of uptake of siRNA, neuronal” value [1] does the source give for `N=C(N)NC(=O)c1nc(Cl)c(N)nc1N` [Amiloride, amiloride] here?
The value was 80% ± 9.1.

For “MPVGSLQELAVQKGWRLPEYTVAQESGPPHKREFTITVRVE [P1]”, which water solubility [2] is on record?
Its water solubility is “poor water solubility”.

What does the source list for “SIRKLEYEIEELRLRIGGGTFVETGSGTSKQVAKRVAAEKLLTKFKT [P4]”?
release of siRNA after proteinase K digestion (Proteinase K): can be released after protease digestion; salt and enzymatic stability of P4 complexed with dsDNA (DNAse I): lower salt and enzymatic stability; cell survival, astroglial cells [3]: 88% ± 5.5; cell survival, neuronal cells [4]: 89% ± 7
